# Assays:
# Format in all cases: cell-based, human
# MCF-7 (breast cancer) = assay: 51Cr-release CTL-assay against tumor cell line MCF-7; conditions: cell line MCF-7, FIG. 3d / 3e
# Description: (§1) In the CTL-assays, tumor cells, peptide-pulsed cells of different cell lines and autologous DC were used as target cells. Peptide-pulsed cells were pulsed with 50 μg/ml peptide (SEQ ID No. 1 or SEQ ID No. 2) for 2 hours. All target cells were labeled with [^51Cr] sodium chromate in RP10 (RPMI 1640, supplemented with 10% heat inactivated calf serum and antibiotics) for 1 hour at 37° C. Subsequently, 10^4 cells/well were transferred to a 96-well round bottomed plate. Varying numbers of CTL were added to give a final volume of 200 μl and incubated for 4 hours at 37° C. At the end of the assays, supernatants (50 μl/well) were harvested and counted in a beta-plate counter. […] The spontaneous and maximal release were determined in the presence of either medium or 2% Triton X-100, respectively.
# (§2) Next, it was tested, in a standard tumor ^51Cr-release-assays again, whether CTL specific for the c-Met-peptide with SEQ ID No. 1 or for adipophilin-peptide with SEQ ID No. 2 recognized and lysed tumor cells, which endogenously express the c-Met-protooncogene or adipophilin. […]
# [1] = tested on: MeI 1479 (Malignant melanoma); assay: 51Cr-release CTL-assay against tumor cell line MeI 1479; conditions: cell line MEL 1479 / MeI 1479, FIG. 3c / 3f
# Description: as §1, §2
# [2] = tested on: SK-OV-3 (ovarian cancer; HLA-A*03-positive); assay: 51Cr-release CTL-assay against negative control cell line SK-OV-3; conditions: SK-OV-3 (HLA-A*02-negative)
# Description: as §1
# In the experiments CEBV (Epstein-Barr-virus)-immortalized B-cell line Croft, HLA-A*01-positive; obtained from O. J. Finn, Pittsburgh, USA) and cell line SK-OV-3 (ovarian cancer; HLA-A*03-positive; obtained from O. J. Finn, Pittsburgh, USA) were used as negative controls. K 562-cells (for example obtainable at the German Collection of Mikro Organisms and Cell Cultures DSMZ; ACC 10) were used to determine the activity of natural killer cells (NK) since the cell line is highly sensitive for these killer cells. […]
# [3] = tested on: autologous DC electroporated with RNA; assay: 51Cr-release CTL-assay against autologous DC electroporated with RNA
# Description: as §1
# In a next experiment, the cytotoxic activity of CTL in an autologous setting was analyzed. In doing so, autologous DC, generated from the same PBMNC that were utilized for CTL induction (see under 2.2.), were used as target cells. Prior to the CTL-assay, the DC were electroporated with RNA, which was previously isolated either from tumor cell lines or which represented control-RNA (in vitro transcribed EGFP-RNA, enhanced Green fluorescent protein-RNA); plasmide: pSP64 Poly(A) EGFPII, obtained from Van Tendeloo, Antwerp, Belgium). Total RNA of tumor cells was isolated with the QIAGEN Rneasy Mini Kit (QIAGEN, Hilden, Germany) according to the manufacturer's protocol. Quantity and purity of RNA were determined by spectrophotometry and stored in aliquots at −80° C.
# Prior to electroporation on day 6, immature DC were washed twice with serum-free X-VIVO 20 medium (BioWhittaker, Walkersville, USA) and resuspended to a final concentration of 2×10^7 cells/ml. Subsequently, 200 μl of the cell suspension were mixed with 10 μg of total RNA and electroporated in a 4 mm-cuvette using an Easyject Plus™ (Peglab, Erlangen, Germany) (parameters: 300 V, 150 μF, 1540Ω, pulse time 231 ms). After electroporation the cells were immediately transferred into RP10 medium and returned to the incubator.
# 51Cr-labeled A 498 = assay: Lysis-inhibition assay with cold peptide-pulsed T2 inhibitor cells, target A 498
# Description: To further verify the antigen-specificity and the MHC-restriction of the in-vitro-induced CTL, inhibition assays with non-^51Cr-labeled (“cold”) inhibitor cell lines were performed.
# In doing so, the ability of peptide-pulsed cell lines was analyzed to inhibit the lysis of tumor cells (competition assay). For this purpose, an excess of inhibitor (that is an excess of unlabeled pulsed cells) was used. The ratio of inhibitor (peptide-pulsed cells) to target (tumor cells) was 20:1. When inhibitor cell lines were lysed, no ^51Cr was released, since the inhibitor cell lines were unlabeled.
# Cell line T2 (HLA-A*02; TAP-deficient; see under 2.5.a) was used as inhibitor. Previous to the assay, this cell line T2 was pulsed with the relevant peptides (SEQ ID NOS:1 or 2) or an irrelevant control peptide (Survivin (=Sv), SEQ ID NO:80), respectively.
# In FIGS. 4a and 4b, lysis of the ^51Cr-labeled cell lines U 266 and A 498 was tested without inhibitor cell line (see the curve with black filled boxes); lysis with inhibitor cell line T2, pulsed with an irrelevant peptide (Survivin; SEQ ID NO:80; negative control, curves with the filled triangles); and lyses with the inhibitor cell line T2 pulsed with the c-Met-peptide with SEQ ID NO:1 (curves with the empty rhombus).
# With these inhibition assays, the cells were incubated with 10 μg/ml antibody previous to seeding on the 96-well-plates for 30 min.
# [4] = tested on: MZ 1257 (renal cell carcinoma); assay: 51Cr-release CTL-assay against tumor cell line MZ 1257; conditions: cell line MZ 1257, FIG. 3c / 3f
# Description: as §1, §2
# U 266 (multiple myeloma) = assay: 51Cr-release CTL-assay against tumor cell line U 266; conditions: cell line U 266, FIG. 3d / 3e
# Description: as §1, §2
Sequence,lysis of tumor cells by CTL induced with the peptide (MCF-7 (breast cancer)),lysis of tumor cells by CTL induced with the peptide [1],lysis of control cell line by CTL induced with the peptide [2],"lysis of autologous DC electroporated with tumor RNA by CTL induced with the peptide ([3]; RNA of A 498, FIG. 5a / 5b)","lysis of autologous DC electroporated with RNA by CTL induced with the peptide ([3]; control (EGFP) RNA, FIG. 5b)","inhibition of CTL-induced lysis of tumor cell line by T2 cells pulsed with the peptide (51Cr-labeled A 498; adipophilin-peptide-induced CTL, FIG. 4c)",lysis of tumor cells by CTL induced with the peptide [4],lysis of tumor cells by CTL induced with the peptide (U 266 (multiple myeloma)),"lysis of autologous DC electroporated with tumor RNA by CTL induced with the peptide ([3]; RNA of MCF-7, FIG. 5a)","lysis of autologous DC electroporated with RNA by CTL induced with the peptide ([3]; RNA of non-C-met-expressing cell line Croft, FIG. 5a)","lysis of 51Cr-labeled tumor cells in presence of unlabeled T2 inhibitor cells pulsed with the peptide (51Cr-labeled A 498; c-Met-peptide-induced CTL, inhibitor:target 20:1, FIGS. 4a and 4b)"
"SVASTITGV (listed as Homo sapiens) [SEQ ID No. 2, HLA-A*02 ligand, adipose differentiation-related protein 129-137]",efficiently lyse,efficiently lyse,no lysis,lysed,not lysed,able to inhibit,efficiently lyse,efficiently lyse,–,–,–
"YVDPVITSI (listed as Homo sapiens) [SEQ ID No. 1, HLA-A*02 ligand, met proto-oncogen 654-662]",efficiently lyse,efficiently lyse,no lysis,specific lysis,–,–,efficiently lyse,efficiently lyse,specific lysis,not lysed,not lysed
